Measured values as given in US20120095022A1, “DERIVATIVES OF 10-AMINO-1,2,3,4-TETRAHYDROPYRIDO[2,1-A]ISOINDOL-6(10BH)-ONES, METHOD FOR PREPARATION THEREOF AND THERAPEUTIC USES THEREOF” (UNIVERSITE D'ORLEANS, priority 2009, published 2012).

Legend:
[1] = test system: MDA-MB 231 (breast); test: Cytotoxicity on human cells, automated nuclei counting: MDA-MB 231; type: cell-based; conditions: MDA-MB 231 cells, exposed 24 h to 48 h, 0.1 to 25 μM
Experimental: (§1) Cytotoxicity: This method is based on an automated imaging analysis. 4.10^3 cells were cultivated on 96-well plates and left for 24 hours so as to bind, to spread and proliferate.
(§2) All the cell lines were cultivated in a DMEM or RPMI (Invitrogen) medium. All these media were completed with antibiotics (penicillin-streptomycin) (Lonza) and 10% by volume of fetal calf serum (Invitrogen). The cells were cultivated at 37° C. with 5% of CO2. The treatments with the molecules to be tested were carried out with increasing concentrations. The control experiments were also carried out by using suitable dilutions of DMSO (maximum 1% DMSO).

[2] = test system: NCI (lung); test: Cytotoxicity on human cells, automated nuclei counting: NCI; type: cell-based; conditions: exposed 24 h to 48 h, 0.1 to 25 μM
Experimental: as §1, §2

[3] = test system: fibroblast; test: Cytotoxicity on human cells, automated nuclei counting: fibroblast; type: cell-based; conditions: exposed 24 h to 48 h, 0.1 to 25 μM
Experimental: as §1, §2

[4] = test system: HCT 116 (colon); test: Cytotoxicity on human cells, automated nuclei counting: HCT 116; type: cell-based; conditions: HCT 116 cells, exposed 24 h to 48 h, 0.1 to 25 μM
Experimental: as §1, §2

[5] = biological target: T1, CDK5/D25 (Homo sapiens, UniProt Q00535); test: CDK5 kinase inhibition (33P-ATP, histone H1); type: biochemical; conditions: buffer C, 30° C., 15 μM ATP, read-out: IC50 μM Kinases CDK5
T1 construct: made in house
Experimental: The protein kinase inhibition activities of the compounds of the invention are tested according to the following general procedure:
Buffer C: 60 mM β-glycerophosphate, 15 mM p-nitrophenyl-phosphate, 25 mM Mops (pH 7.2), 5 mM EGTA, 15 mM mgCl2, 1 mM DTT, 1 mM sodium vanadate and 1 mM phenylphosphate.
The controls were made with suitable dilutions of DMSO.
ATP (3.000 Ci/mmol.; 10 mCi/mL) in a final volume of 30 μL. After 30 mins of incubation at 30° C., 25 μL of supernatant aliquots were deposited on phosphocellulose Whatman P81 paper pieces of 2.5×3 cm, and after 20 seconds, the filters were washed five times (for at least 5 minutes each time) in a solution of 10 mL of phosphoric acid/1 litre of water. The wet filters were counted in the presence of 1 mL of scintillation fluid ACS (Amersham).

[6] = test system: Huh7 (liver); test: Cytotoxicity on human cells, automated nuclei counting: Huh7; type: cell-based; conditions: Huh-7, exposed 24 h to 48 h, 0.1 to 25 μM
Experimental: as §1, §2

[7] = test system: PC3 (prostate); test: Cytotoxicity on human cells, automated nuclei counting: PC3; type: cell-based; conditions: PC-3, exposed 24 h to 48 h, 0.1 to 25 μM
Experimental: as §1, §2

[8] = test system: Caco (colon); test: Cytotoxicity on human cells, automated nuclei counting: Caco; type: cell-based; conditions: exposed 24 h to 48 h, 0.1 to 25 μM
Experimental: as §1, §2

T1 sequence (Q00535 whole entry): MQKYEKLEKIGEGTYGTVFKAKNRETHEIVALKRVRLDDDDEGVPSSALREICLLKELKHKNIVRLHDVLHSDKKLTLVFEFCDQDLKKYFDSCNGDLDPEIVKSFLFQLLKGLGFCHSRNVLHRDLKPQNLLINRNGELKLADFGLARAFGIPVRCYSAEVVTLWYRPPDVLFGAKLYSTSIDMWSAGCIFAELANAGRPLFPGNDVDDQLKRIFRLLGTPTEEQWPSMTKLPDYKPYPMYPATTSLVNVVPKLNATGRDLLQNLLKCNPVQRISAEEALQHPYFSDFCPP
T1 sequence (Q15078 99-307 partner limits assumed): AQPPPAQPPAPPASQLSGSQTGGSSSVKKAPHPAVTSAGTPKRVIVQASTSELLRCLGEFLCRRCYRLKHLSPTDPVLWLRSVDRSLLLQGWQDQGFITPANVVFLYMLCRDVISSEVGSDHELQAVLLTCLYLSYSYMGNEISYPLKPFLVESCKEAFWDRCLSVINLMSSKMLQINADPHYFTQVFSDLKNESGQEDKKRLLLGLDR

melting point [°C] | Structure (SMILES) | IC50 [1] [µM] | IC50 [2] [µM] | IC50 [3] [µM] | IC50 [4] [µM] | IC50 [5] [µM] | IC50 [6] [µM] | IC50 [7] [µM] | IC50 [8] [µM]
180 | O=C1c2cccc(NC(=S)Nc3ncccc3Br)c2C2CCCCN12 (stereo not drawn) [Compound 72, 1-(3-bromopyridin-2-yl)-3-(6-oxo-1,2,3,4,6,10b-hexahydropyrido[2,1-a]isoindol-10-yl)thiourea] |  |  |  |  |  |  |  | 
232 | Cc1ccc(NC(=S)Nc2cccc3c2C2CCCCN2C3=O)nc1 (stereo not drawn) [Compound 73, 1-(5-methylpyridin-2-yl)-3-(6-oxo-1,2,3,4,6,10b-hexahydropyrido[2,1-a]isoindol-10-yl)thiourea] |  |  |  |  |  |  |  | 
184 | O=C(Nc1cc[nH]n1)Nc1cccc2c1C1CC3(CCN1C2=O)SCCS3 (stereo not drawn) [Compound 77, 1-(6′-Oxo-3′,4′,6′,10b′-tetrahydro-1′H-spiro[[1,3]dithiolane-2,2′-pyrido[2,1-a]isoindole]-10′-yl)-3-(1H-pyrazol-3-yl)urea] |  |  |  |  |  |  |  | 
166 | Nc1ccn(C(=O)Nc2cccc3c2C2CCCCN2C3=O)n1 (stereo not drawn) [Compound 78, 3-Amino-N-(6-oxo-1,2,3,4,6,10b-hexahydropyrido[2,1-a]isoindol-10-yl)-1H-pyrazole-1-carboxamide] |  |  |  |  |  |  |  | 
172 | O=C(Nc1ccccc1)Nc1cccc2c1C1CCCCN1C2=O (stereo not drawn) [Compound 87, N-(6-Oxo-1,2,3,4,6,10b-hexahydropyrido[2,1-a]isoindol-10-yl)-N′-phenylurea] |  |  |  |  |  |  |  | 
183 | O=C(NCc1ccccc1)Nc1cccc2c1C1CCCCN1C2=O (stereo not drawn) [Compound 92, N-Benzyl-N′-(6-oxo-1,2,3,4,6,10b-hexahydropyrido[2,1-a]isoindol-10-yl)urea] |  |  |  |  |  |  |  | 
230 | O=C1CCN2C(=O)c3cccc(-n4c(=O)[nH]c5cnccc5c4=O)c3C2C1 (stereo not drawn) [Compound 99, 10-(2,4-dioxo-1,2-dihydropyrido[3,4-d]pyrimidin-3(4H)-yl)-1,3,4,10b-tetrahydropyrido[2,1-a]isoindole-2,6-dione] |  |  |  |  |  |  |  | 
> 260 | Cc1cccnc1NC(=O)Nc1cccc2c1C1CC(=O)CCN1C2=O (stereo not drawn) [Compound 100, 1-(2,6-dioxo-1,2,3,4,6,10b-hexahydropyrido[2,1-a]isoindol-10-yl)-3-(3-methylpyridin-2-yl)urea] |  |  |  |  |  |  |  | 
226 to 228 | Cc1cccc(NC(=O)Nc2cccc3c2C2CC(=O)CCN2C3=O)n1 (stereo not drawn) [Compound 101, 1-(2,6-dioxo-1,2,3,4,6,10b-hexahydropyrido[2,1-a]isoindol-10-yl)-3-(6-methyl-pyridin-2-yl)urea] |  |  |  |  |  |  |  | 
223 to 225 | COc1cc(NC(=O)Nc2cccc3c2C2CC(=O)CCN2C3=O)nc2ccccc12 (stereo not drawn) [Compound 102, 1-(2,6-dioxo-1,2,3,4,6,10b-hexahydropyrido[2,1-a]isoindol-10-yl)-3-(4-methoxyquinolin-2-yl)urea] |  |  |  |  |  |  |  | 
> 290 | O=C1c2cccc(-n3c(=O)[nH]c4ncccc4c3=O)c2C2CCCCN12 (stereo not drawn) [Compound 117, 3-(6-Oxo-1,2,3,4,6,10b-hexahydro-pyrido[2,1-a]isoindol-10-yl)-1H-pyrido[2,3-d]pyrimidine-2,4-dione] |  |  |  |  |  |  |  | 

Second part, the compound before the results:

Structure (SMILES) | melting point [°C] | IC50 [1] [µM] | IC50 [2] [µM] | IC50 [3] [µM] | IC50 [4] [µM] | IC50 [5] [µM] | IC50 [6] [µM] | IC50 [7] [µM] | IC50 [8] [µM]
O=C(Nc1cccc(Br)n1)Nc1cccc2c1C1CC3(CCN1C2=O)SCCS3 (stereo not drawn) [Compound 21, 1-(6-Bromopyridin-2-yl)-3-(6′-oxo-3′,4′,6′,10b′-tetrahydro-1′H-spiro[[1,3]dithiolane-2,2′-pyrido[2,1-a]isoindole]-10′-yl)urea] | 170 | 4 | 6 | 9 | 2.5 | > 10 | 2 | 4 | 3
O=C(Nc1ccccn1)Nc1cccc2c1C1CC3(CCN1C2=O)OCCO3 (stereo not drawn) [Compound 28, 1-(6′-Oxo-3′,4′,6′,10b′-tetrahydro-1′H-spiro[[1,3]dioxolane-2,2′-pyrido[2,1-a]isoindole]-10′-yl)-3-(pyridin-2-yl)urea] |  | 1 | 4 | 3 | 0.6 | 11 | 1 | 1.5 | 0.6
O=C(Nc1cnccn1)Nc1cccc2c1C1CC3(CCN1C2=O)OCCO3 (stereo not drawn) [Compound 29, 1-(6′-Oxo-3′,4′,6′,10b′-tetrahydro-1′H-spiro[[1,3]dioxolane-2,2′-pyrido[2,1-a]isoindole]-10′-yl)-3-(pyrazin-2-yl)urea] |  | 3 | 8 | 10 | 1.5 | 7.1 | 3 | 5 | 5
O=C(Nc1ccccn1)Nc1cccc2c1C1CCCCN1C2=O (stereo not drawn) [Compound 30, 1-(6-oxo-1,2,3,4,6,10b-hexahydropyrido[2,1-a]isoindol-10-yl)-3-(pyridin-2-yl)urea] |  | 0.05 | 0.2 | 0.2 |  |  | 0.03 | 0.1 | 0.1
O=C(Nc1cnccn1)Nc1cccc2c1C1CCCCN1C2=O (stereo not drawn) [Compound 38, 1-(6-Oxo-1,2,3,4,6,10b-hexahydropyrido[2,1-a]isoindol-10-yl)-3-(pyrazin-2-yl)urea] | 215 | 0.2 | 0.8 | 0.8 | 0.1 |  | 0.2 | 0.3 | 1
O=C(Nc1cccc2c1C1CCCCN1C2=O)NN1CCCCC1 (stereo not drawn) [Compound 85, N-(6-Oxo-1,2,3,4,6,10b-hexahydropyrido[2,1-a]isoindol-10-yl)-N′-(piperidin-1-yl)urea] | 166 |  |  |  |  |  |  |  | 
O=C1CCN2C(=O)c3cccc(NC(=O)Nc4ccccn4)c3C2C1 (stereo not drawn) [Compound 97, 1-(2,6-Dioxo-1,2,3,4,6,10b-hexahydropyrido[2,1-a]isoindol-10-yl)-3-(pyridin-2-yl)urea] | 254 | 3 | 2 | 6 | 2 | 3.6 | 3 | 5 | 7
O=C1CCN2C(=O)c3cccc(NC(=O)Nc4cnccn4)c3C2C1 (stereo not drawn) [Compound 98, 1-(2,6-Dioxo-1,2,3,4,6,10b-hexahydropyrido[2,1-a]isoindol-10-yl)-3-(pyrazin-2-yl)urea] |  | > 25 | > 25 | > 25 | 20 | > 10 | > 25 | > 25 | 25
O=C(Nc1ccccn1)Nc1cccc2c1C1C[C@@H](O)CCN1C2=O (stereo partly drawn) [Compound 104, 1-((2S)-2-Hydroxy-6-oxo-1,2,3,4,6,10b-hexahydropyrido[2,1-a]iso-indol-10-yl)-3-(pyridin-2-yl)urea] | 220 | 3 | 3 | 2 | 1 | 2.1 | 2 | 3 | 7
Cc1cccnc1NC(=O)Nc1cccc2c1C1CC(O)CCN1C2=O (stereo not drawn) [Compound 107, 1-(2-Hydroxy-6-oxo-1,2,3,4,6,10b-hexahydropyrido[2,1-a]isoindol-10-yl)-3-(3-methylpyridin-2-yl)urea] | 204 to 206 | 8 | 7 | 6 | 1.5 | 0.63 | 5 | 5 | 12
Cc1cccc(NC(=O)Nc2cccc3c2C2CC(O)CCN2C3=O)n1 (stereo not drawn) [Compound 108, 1-(2-Hydroxy-6-oxo-1,2,3,4,6,10b-hexahydropyrido[2,1-a]isoindol-10-yl)-3-(6-methylpyridin-2-yl)urea] | 240 to 242 | 8 | 10 | 10 | 3 | 1 | 3 | 2 | 15
O=C1c2cccc(-n3c(=O)[nH]c4cnccc4c3=O)c2C2CC3(CCN12)OCCO3 (stereo not drawn) [Compound 113, 3-(6′-oxo-3′,4′,6′,10b′-tetrahydro-1′H-spiro[[1,3]dioxolane-2,2′-pyrido[2,1-a]isoindole]-10′-yl)pyrido[3,4-d]pyrimidine-2,4(1H,3H)-dione] | 204 |  |  |  |  |  |  |  | 
